# From the supplement of paper PMC4862054
# Legend:
# Details in all cases: incubation time: 72 h
# CAL-120 [1] = experiment: normalised viability (% of control), CellTiter-Blue; higher = more viable cells (100 = DMSO, 0 = benzethonium chloride kill control)
# Method: (§1)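 DSRT, CellTiter-Blue viability, 72 h incubation. Signal is normalised to DMSO and benzethonium chloride controls. Value is the normalised response at dose 1.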
# Hs578T [2] = experiment: as above
# Method: as §1
# MDA-MB-468 [3] = experiment: as above
# Method: as §1
# CAL-148 [4] = experiment: as above
# Method: as §1
# MDA-MB-453 [5] = experiment: as above
# Method: as §1
# MDA-MB-231 [6] = experiment: as above
# Method: as §1
# HCC1143 [7] = experiment: as above
# Method: as §1
# SK-BR-3 [8] = experiment: as above
# Method: as §1
# MFM-223 [9] = experiment: as above
# Method: as §1
# MDA-MB-436 [10] = experiment: as above
# Method: as §1
# HCC1937 [11] = experiment: as above
# Method: as §1
# HDQ-P1 [12] = experiment: as above
# Method: as §1
# DU-4475 [13] = experiment: as above
# Method: as §1
# CAL-51 [14] = experiment: as above
# Method: as §1
# HCC1599 [15] = experiment: as above
# Method: as §1
# BT-549 [16] = experiment: as above
# Method: as §1
# BT-474 [17] = experiment: as above
# Method: as §1
# CAL-85-1 [18] = experiment: as above
# Method: as §1
# CAL-120 [19] = experiment: normalised response (% of control), CellTiter-Glo; higher = more viable cells (100 = DMSO, 0 = benzethonium chloride kill control)
# Method in brief: (§2)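 Breast cancer cell lines in 20 µl suspension were added to 384-well plates containing compound at 5 concentrations, spaced in 10-fold steps across a 10,000-fold range chosen for each compound, and incubated for 72 h. CellTox Green fluorescence was read at 485/520 nm, followed by CellTiter-Glo luminescence after 10 min at room temperature. Signals on each plate were normalised so that 0.1 % DMSO equals 100 and a positive kill control equals 0. Every value in the table is the normalised signal at one concentration of the series.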
# Hs578T [20] = experiment: as above
# Method in brief: as §2
# MDA-MB-468 [21] = experiment: as above
# Method in brief: as §2
# CAL-148 [22] = experiment: as above
# Method in brief: as §2
# MDA-MB-453 [23] = experiment: as above
# Method in brief: as §2
# MDA-MB-231 [24] = experiment: as above
# Method in brief: as §2
# HCC1143 [25] = experiment: as above
# Method in brief: as §2
# SK-BR-3 [26] = experiment: as above
# Method in brief: as §2
# MFM-223 [27] = experiment: as above
# Method in brief: as §2
# MDA-MB-436 [28] = experiment: as above
# Method in brief: as §2
# HCC1937 [29] = experiment: as above
# Method in brief: as §2
# HDQ-P1 [30] = experiment: as above
# Method in brief: as §2
# DU-4475 [31] = experiment: as above
# Method in brief: as §2
# CAL-51 [32] = experiment: as above
# Method in brief: as §2
# HCC1599 [33] = experiment: as above
# Method in brief: as §2
# BT-549 [34] = experiment: as above
# Method in brief: as §2
# MCF-10A = experiment: as above
# Method in brief: as §2
# BT-474 [35] = experiment: as above
# Method in brief: as §2
# CAL-85-1 [36] = experiment: as above
# Method in brief: as §2
SMILES,normalised viability (CAL-120 [1]),normalised viability (Hs578T [2]),normalised viability (MDA-MB-468 [3]),normalised viability (CAL-148 [4]),normalised viability (MDA-MB-453 [5]),normalised viability (MDA-MB-231 [6]),normalised viability (HCC1143 [7]),normalised viability (SK-BR-3 [8]),normalised viability (MFM-223 [9]),normalised viability (MDA-MB-436 [10]),normalised viability (HCC1937 [11]),normalised viability (HDQ-P1 [12]),normalised viability (DU-4475 [13]),normalised viability (CAL-51 [14]),normalised viability (HCC1599 [15]),normalised viability (BT-549 [16]),normalised viability (BT-474 [17]),normalised viability (CAL-85-1 [18]),normalised response (CAL-120 [19]),normalised response (Hs578T [20]),normalised response (MDA-MB-468 [21]),normalised response (CAL-148 [22]),normalised response (MDA-MB-453 [23]),normalised response (MDA-MB-231 [24]),normalised response (HCC1143 [25]),normalised response (SK-BR-3 [26]),normalised response (MFM-223 [27]),normalised response (MDA-MB-436 [28]),normalised response (HCC1937 [29]),normalised response (HDQ-P1 [30]),normalised response (DU-4475 [31]),normalised response (CAL-51 [32]),normalised response (HCC1599 [33]),normalised response (BT-549 [34]),normalised response (MCF-10A),normalised response (BT-474 [35]),normalised response (CAL-85-1 [36])
C=C1C[C@@H]2[C@H](CC[C@]3(C)C(=O)CC[C@@H]23)[C@@]2(C)C=CC(=O)C=C12 [Exemestane] (1 nM),86.5%,112%,117%,89.2%,99.2%,93.5%,85.9%,91.5%,88.7%,95.2%,102%,100%,90.9%,95.2%,84.5%,114%,81.5%,88.2%,101%,106%,101%,98.6%,108%,105%,102%,107%,108%,134%,93.6%,101%,106%,88.6%,112%,91.6%,112%,97.6%,97.2%
O=P1(N(CCCl)CCCl)NCCCO1 (stereo unspecified) [Cyclophosphamide] (4 nM),87.3%,102%,98.9%,119%,104%,96.9%,96.8%,101%,85.1%,110%,82.9%,107%,120%,105%,81.6%,93.2%,97%,88.2%,93.4%,101%,102%,99.6%,115%,96.9%,100%,110%,105%,94%,96.7%,97.7%,103%,81.2%,107%,98.5%,111%,93.9%,97.4%
O=C(Nc1ccncc1)C(=O)c1cn(Cc2ccc(Cl)cc2)c2ccccc12 [Indibulin] (1 nM),92.1%,111%,102%,111%,103%,119%,95.7%,102%,97%,161%,95.8%,77.9%,121%,106%,109%,100%,104%,98.9%,99.1%,100%,103%,109%,113%,102%,97.2%,110%,107%,103%,100%,106%,109%,59.7%,113%,104%,101%,103%,106%
CN(C)c1nc(N(C)C)nc(N(C)C)n1 [Altretamine] (1 nM),88.2%,97.3%,93.1%,111%,99.1%,96%,102%,87.6%,95.1%,110%,105%,116%,111%,105%,86.3%,93.1%,112%,94.8%,97%,102%,101%,96.5%,124%,104%,99.6%,108%,103%,97.9%,93.1%,101%,104%,103%,90.2%,95%,102%,106%,96.4%
COc1cc(OC2CCN(C)CC2)ccc1Nc1ncc2c(n1)n(C1CCCC1)c(=O)n2C [AZ 3146] (1 nM),116%,89.2%,105%,109%,94.3%,92.2%,128%,107%,109%,103%,95.2%,88.3%,98.8%,92.4%,126%,84.3%,98.9%,114%,105%,93.7%,101%,101%,112%,102%,98.9%,98.3%,98.2%,85.8%,95.9%,98.4%,90.9%,101%,125%,107%,94.2%,95.5%,99.7%
CN(C)CCOc1ccc(/C(=C(/CCCl)c2ccccc2)c2ccccc2)cc1 [Toremifene] (1 nM),83.5%,106%,113%,108%,112%,101%,97.7%,102%,104%,126%,142%,107%,107%,104%,105%,113%,114%,90.9%,103%,110%,106%,104%,119%,106%,98.5%,111%,103%,98.7%,96.2%,98.6%,103%,114%,106%,104%,107%,102%,98.4%
Cc1ccc(NC(=O)c2ccc(CN3CCN(C)CC3)cc2)cc1Nc1nc(-c2cccnc2)cs1 [Masitinib] (1 nM),79.2%,109%,110%,86.5%,98.4%,93.4%,89.9%,93.9%,96.8%,91.7%,72.1%,84.1%,102%,100%,92.2%,119%,102%,92.5%,95.8%,100%,114%,101%,110%,97.9%,100%,104%,102%,100%,105%,100%,103%,98.9%,119%,103%,96.6%,96.4%,98.7%
Cc1[nH]c2ccccc2c1CCNCc1ccc(/C=C/C(=O)NO)cc1 [Panobinostat] (0.1 nM),102%,100%,106%,106%,108%,109%,104%,97.2%,104%,109%,104%,100%,111%,110%,116%,108%,102%,104%,107%,91.8%,94.4%,105%,103%,105%,100%,95.9%,99.5%,98.9%,94.7%,98.2%,99.7%,130%,98.6%,99.5%,96.2%,101%,102%
